# Where “and” joins values, the source holds several entries; their conditions need not be identical. Identical values can stand only once. Like-named read-outs stand apart in the source and are kept apart here.
# Columns and labels:
# herpes viruses = details: cited from earlier work
# herpes virus = details: cited from earlier work
# Vero cells [1] = details: thimerosal doses tested (40 ng or 80 ng in 100 μl media)
# Method: Vero cells were plated to a density of 70% confluency in 96-well dishes at a concentration of 75,000 cells/well). Cells were pretreated with either 40 ng or 80 ng thimerosal in 100 μl media for either 1 hour, 2 hours, 3 hours, 4 hours or 16 hours prior to infection.
# After 1 hour at 37° C., virus was removed and cells were washed with unsupplemented MEM to remove unbound virus. The cells were then fed 100 μl/well complete media and stained for Tad (BK virus) or V-ag (JC virus) and scored via direct immunofluorescence.
# Vero cells [2] = tested on: Vero cells
# HSV [3] = details: ARPE-19 cells, 40 ng/ml, continuous treatment before HSV infection, depending on the treatment time point
# HSV [4] = details: Vero cells, 40 ng/ml
# Method: Green Monkey Kidney (Vero) cells were treated with thimerosal (40 ng/ml) at various time points (30 minutes, 1 hour, 2 hours, 3, hours, 4 hours, 6 hours and 8 hours) after HSV infection. The number of plaques formed on day 6 post-infection was used to measure the effectiveness of thimerosal in preventing HSV infections. The number of plaques was normalized to the number of plaques in the control.
# [5] = Text: A parent shared a drink with their child. Later that day the child asked their parent, who is an RN, to check the child's glands as they felt swollen and their throat hurt.
# [6] = tested on: molluscum contagiosum, a poxvirus infection; details: several children, one drop (0.05 cc) every 15 minutes for an hour, then hourly; six times daily on days 2 and 3
# BK virus [7] = tested on: BK virus
# HSV [8] = details: ARPE-19 cells, media of PBMCs incubated with 40 ng/ml thimerosal, overlaid prior to HSV infection
# Method: PBMCs were incubated with 40 ng/ml thimerosal for a minimum of 6 hours and then were overlaid in ARPE-19 cells at various time points (12 hours, 4 hours, 2 hours, 1 hour, 30 minutes and 10 minutes) prior to HSV infection of the ARPE-19 cells. ARPE-19 cells were not continuously treated with thimerosal. ARPE-19 cells receiving thimerosal treatment with PBMC media was used as a control. The number of plaques formed on day 6 post-infection was used to measure the effectiveness of thimerosal in preventing HSV infections. The number of plaques was normalized to the number of plaques in the control.
# HSV [9] = details: Vero cells, 40 ng/ml; remark: listed apart in the source
# Method: Green Monkey Kidney (Vero) cells were treated with thimerosal (40 ng/ml) at various time points (12 hours, 4 hours, 1 hour, and 30 minutes) prior to and at the time of HSV infection. The number of plaques formed on day 6 post-infection was used to measure the effectiveness of thimerosal in preventing HSV infections.
# laryngeal papillomas = details: child, one drop (0.05 cc) every 15 minutes for an hour, then hourly; six times daily on days 2 and 3
# Method: A child suffering from laryngeal papillomas spreading to the soft palate was treated with one drop of thimerosal (in a dose of 0.05 cc) every 15 minutes for an hour and then one drop every hour until bedtime. Thimerosal was administered in one drop every six times daily on days 2 and 3 and then as needed on subsequent days.
# common cold = tested on: common cold
# Method: A fifty-three old person with classic symptoms of the common cold used one drop of thimerosal (in a dose of 0.05 cc) every hour for one day.
# The child of the person in Example 4 was treated with thimerosal for the common cold on several occasions. The child experienced symptoms for 5-7 days without treatment, which was reduced to 1-3 days when treated with thimerosal.
# BK virus [10] = tested on: BK virus; remark: listed apart in the source
# porcine oocytes = details: cited from earlier work
# adenovirus = details: person, one drop (0.05 cc) every 15 minutes for an hour, then every hour until bedtime
# Method: A person with symptoms of an adenovirus infection took one drop of thimerosal (in a dose of 0.05 cc) every 15 minutes for an hour, and then one drop every hour until bedtime.
# [11] = treatment at the time of infection
structure (smiles),measurement,setting,value
O=C(O)c1ccccc1SSc1ccccc1C(=O)O [dithiodibenzoic acid],anti-herpes virus activity in vitro,herpes viruses,indicated anti-herpes virus activity in vitro
same,antiviral activity in vivo,herpes virus,do not provide antiviral activity in vivo
C[CH2][Hg][S]c1ccccc1C(=O)[O-].[Na+] [thimerosal],Fold changes (vs. Control),TUBB4Q,1.85
same,anti-herpes virus activity in vitro,herpes viruses,demonstrate activity against herpes viruses
same,viral propagation,"herpes viruses; thimerosal mixed in a test tube with herpes virus, subsequently introduced into susceptible cells",viral propagation is not inhibited
same,toxicity to cells,Vero cells [1],did not appear to be toxic
same,Fold changes (vs. Control),SP1,1.95 and 2.04 and 2
same,toxicity to cells,Vero cells [2],appeared to be toxic
same,Fold changes (vs. Control),POLR2A,−1.84
same,"inhibition of the activity of HSV (plaques, percent of control)",HSV [3],up to 55%
same,number of plaques formed on day 6 post-infection,"HSV [4]; all other post-infection time points (30 minutes, 4, 6, 8 hours)",did not significantly reduce the number of plaques
same,number of plaques formed on day 6 post-infection,HSV [4]; post-infection treatment from 1-3 hours,significant reduction in the plaque numbers
same,number of plaques formed on day 6 post-infection,HSV [4]; [11],did not change the number of plaques
same,"symptoms (swollen glands, sore throat)","[5]; child, one drop (0.05 cc) at a two hour interval",symptoms were resolved
same,development of symptoms after prophylactic dosing,"[5]; parent, dosed as a prophylactic measure",did not develop any symptoms
same,treatment outcome of molluscum contagiosum,[6],successfully treated
same,infectivity of BK virus,BK virus [7],reduction of the infectivity of the virus
same,reduction of infectivity of BK virus,BK virus [7],approximately 30%
same,infectivity of the JC virus,JC virus,did not appear to inhibit infectivity
same,Fold changes (vs. Control),TUBA4A,1.96 and 2 and 1.95
same,antiviral activity (plaques day 6) versus thimerosal alone,HSV [8],stronger antiviral activity
same,Fold changes (vs. Control),TUBE1,1.95 and 2.03 and 1.98
same,Fold changes (vs. Control),LAT-SPNS1,1.87
same,number of plaques formed on day 6 post-infection,"HSV [9]; prophylactic therapy (12 hours, 4 hours, 1 hour, 30 minutes prior to HSV infection)",significant decrease in the number of plaques
same,number of plaques formed on day 6 post-infection,HSV [9]; treatment 1 hour prior to HSV infection,highest reduction in the plaque number
same,number of plaques formed on day 6 post-infection,HSV [9]; [11],did not reduce the number of plaques
same,resolution of the symptoms of laryngeal papillomas,laryngeal papillomas,complete in five days
same,duration of common cold symptoms when treated,"common cold; child, several occasions, 5-7 days without treatment",1 to 3 days
same,symptoms of the common cold,"common cold; fifty-three old male, one drop (0.05 cc) every hour for one day",resolved by the next day
same,Fold changes (vs. Control),TUBB4,2.13 and 2.12
same,infectivity of BK virus,BK virus [10],reduction of the infectivity of the virus
same,oocyte activation,porcine oocytes; 10 minute exposure to 200 μM thimerosal followed by 30 minute incubation in 8 mM DTT,induced complete activation of porcine oocytes
same,oocyte cell-cycle effect,porcine oocytes; thimerosal treatment alone,arrests oocytes in metaphase
same,symptoms of an adenovirus infection,adenovirus,significantly reduced and were gone the next day
O=C(O)c1ccccc1S [thiosalicylic acid],antiviral activity in vivo,herpes virus,do not provide antiviral activity in vivo
